Key:
[1] = tested on: ΔF508-CFTR in CFPAC-1 cells; assay: Detection of ΔF508-CFTR expression on the cell membrane (immunostaining without permeabilization); type: cell-based, human; conditions: 100 nM, 24 h
Experimental: FIG. 4. Intracellular trafficking of misfolded ΔF508-CFTR by Apoptozole 1. (A) Capan-1 cells expressing normal CFTR display intense fluorescence in a characteristic ring structure that is indicative of cell membrane labeling. (B) CFPAC-1 cells expressing ΔF508-CFTR show little or no fluorescent signal at the cell surface, due to degradation ΔF508-CFTR by interacting with Hsc70 in the proteosome pathway. […] Immunostaining for CFTR is carried out using standard methods without cell permeabilization to allow CFTR detection on the cell surface.
The other embodiment of the present invention provides translocation methods of mutant CFTR (cystic fibrosis transmembrane conductance regulator) to treat cystic fibrosis. Hsc70 assists the degradation of misfolded proteins in the ER (Nature 1996, 381, 571-579 Cell 1998, 92, 351-366 Science 1999, 286, 1888-1893). Cystic fibrosis is a disease caused by removal of mutant CFTR in the ER. The most common mutation of CFTR is the deletion of phenylalanine-508 in CFRT (ΔF508-CFRT). […] When Capan-1 cells are immunostained with anti-CFTR antibody, intense fluorescence is observed in the cell membrane. […]
Capan-1 and CFPAC-1 cells are grown on Permanox slides (Fisher Scientific) for 24 h and treated with 1 mM 4-PBA and 100 nM Az for 24 h. […] The slides were analyzed using a fluorescence microscope (Nikon Eclipse TE2000).

Jurkat human lymphocytes [2] = assay: Suppression of PHA-induced homotypic aggregation in lymphocytes; type: cell-based; conditions: FIG. 3 legend; PHA 10 μg/mL
Experimental: (§1) FIG. 3. Suppression of TNF-α and PHA-induced human lymphocyte activation by Apoptozole 1. (A) Jurkat human lymphocytes are treated with various concentrations of Apoptozole 1 for 1 h and then are activated by incubation with 10 ng/mL of TNF-α for 1 h to induce uropod formation. The formed uropod is determined by microscopic analysis of groups of cells. (B) Lymphocytes treated with TNF-α (10 ng/mL) for 48 h are incubated with various concentrations of Apoptozole 1 for 24 h. Cell number is measured by CyQuant kit. (C) Jurkat human lymphocytes are incubated with various concentrations of Apoptozole 1 for 1 h and then with 10 μg/mL PHA for 1 h to induce cell aggregation. Cell aggregates are counted in 40× fields of view determined randomly.
(§2) Lymphocyte activation leads to the formation of a uropod in the rear pole during cell polarization and cell proliferation. Jurkat lymphocytes are incubated with various concentrations of Apoptozoles for 1 h and the treated cells are then activated by treatment with TNF-α for 1 h. Apoptozoles reduce the uropod formation induced by TNF-α by 45% in comparison with cells treated only with TNF-α. […]
For homotypic aggregation studies, lymphocytes are seeded in 6-well plates at a density of 2×10^4 cells/mL and treated with various concentrations (0-100 nM) of Az for 1 h. […] Cell aggregates are counted in 40× fields of view determined randomly.

Jurkat human lymphocytes [3] = assay: Suppression of TNF-α-induced uropod formation in lymphocytes; type: cell-based; conditions: FIG. 3 legend; TNF-α 10 ng/mL
Experimental: as §1, §2
Jurkat human lymphocytes are seeded in 6-well plates at a density of 10^3 cells/mL in 5% FBS in order to reduce the propensity for spontaneous uropod formation. […] The formed uropod is determined by microscopic analysis of groups of cells.

In the case of `COc1ccc(-c2nc(-c3cc(C(F)(F)F)cc(C(F)(F)F)c3)n(Cc3ccc(C(N)=O)cc3)c2-c2ccc(OC)cc2)cc1` [Apoptozole 1, 4-2-[3,5-bis(trifluoromethyl)phenyl]-4,5-bis(4-methoxphenyl)imidazol-1-yl-methyl-benzamide], the “expression of ΔF508-CFTR on the cell membrane” value [1] is reported as “inhibits Hsc70-mediated degradation of the ΔF508-CFTR”, the “PHA-induced human lymphocyte activation” value (Jurkat human lymphocytes [2]) is reported as “Suppression” and the “TNF-α-induced human lymphocyte activation” value (Jurkat human lymphocytes [3]) is reported as “Suppression”.
